What was measured:
[1] = tested on: adult cat fleas (Ctenocephalides felis); assay: Ctenocephalides felis oral test (CTECFE); assay type: in vivo; conditions: application rate 100 ppm in citrated cattle blood; after 2 days
In short: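 About 20 unfed adult cat fleas fed through parafilm membrane on citrated cattle blood containing compound (DMSO stock diluted in blood to test concentration). Kill % scored after 2 days (100% = all fleas dead).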

[2] = logP determination by HPLC on a reversed-phase column (C18), EEC Directive 79/831 Annex V.A8; assay type: physicochemical
In short: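 Retention on a C18 reversed-phase column (Zorbax Eclipse Plus, 1.8 micron) was used, eluting with acetonitrile/water, each containing formic acid. The gradient ran from 10% to 95% acetonitrile over 4.25 min, then held 1.25 min, at 55° C and 2.0 ml/min, with MS detection.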

[3] = tested on: adult dog ticks (Rhipicephalus sanguineus); assay: Rhipicephalus sanguineus in vitro contact test with adult brown dog ticks (T2); conditions: after 48 h
In short: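 Acetone solutions coated onto test tube walls and floor, giving 5 μg/cm^2 at 900 ppm. Five to ten adult ticks held per tube in the dark at room temperature for 48 h, then heated at 45-50° C for up to 5 min; efficacy is the percentage of dead or moribund ticks unable to climb away.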

[4] = tested on: adult cat fleas (Ctenocephalides felis); assay: Ctenocephalides felis in vitro contact test with adult cat fleas (T1); conditions: after 48 h
In short: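 Test compound was dissolved in acetone p.a. (9 mg per 1 ml) and diluted as needed. 250 μl was spread evenly over the inner walls and floor of a 25 ml test tube by rotating on an orbital shaker for 2 h at 30 rpm. Once the solvent evaporated, 5-10 adult Ctenocephalides felis were added. Tubes were capped with a perforated plastic lid and kept horizontal at room temperature and ambient humidity.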

[5] = tested on: green peach aphid (Myzus persicae); assay: Myzus persicae spray test (MYZUPE); assay type: in vivo; conditions: Chinese cabbage leaf discs, after 6 days
In short: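 Chinese cabbage leaf discs infested with all aphid stages sprayed with compound in acetone/DMF with alkylaryl polyglycol ether emulsifier in water. Efficacy (% aphids killed; 100% all dead, 0% none) scored after 6 days.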

[6] = tested on: larvae of the red stomach worm (Haemonchus contortus); assay: Haemonchus contortus test (HAEMCO); assay type: in vivo; conditions: application rate 20 ppm; after 5 days
Description: T8. Haemonchus contortus-test (HAEMCO)
Solvent: dimethyl sulphoxide
To produce a suitable preparation of active compound, 10 mg of active compound are mixed with 0.5 ml of dimethyl sulphoxide, and the concentrate is diluted with “Ringer solution” to the desired concentration.
Vessels containing the active compound preparation of the desired concentration are populated with about 40 larvae of the red stomach worm (Haemonchus contortus).
After 5 days, the kill in % is determined 100% means that all of the larvae have been killed; 0% means that none of the larvae have been killed.

[7] = tested on: southern root-knot nematode (Meloidogyne incognita); assay: Meloidogyne incognita test (MELGIN); assay type: in vivo; conditions: application rate 20 ppm; lettuce; after 14 days
Description: K. Meloidogyne incognita Test (MELGIN)
Solvent: 125.0 parts by weight of acetone
To prepare a suitable active compound preparation, 1 part by weight of active compound is mixed with the stated amount of solvent and the concentrate is diluted with water to the desired concentration.
Vessels are filled with sand, active compound solution, an egg/larvae suspension of the southern root-knot nematode (Meloidogyne incognita) and lettuce seeds. The lettuce seeds germinate and the plants develop. On the roots, galls are formed.
After 14 days, the nematicidal efficacy in % is determined by the formation of galls. 100% means that no galls have been found; 0% means that the number of galls on the treated plants corresponds to the untreated control.

[8] = HPLC, reversed-phase C18, acetonitrile (0.1% formic acid)/water (0.09% formic acid) gradient
[9] = HPLC on reversed-phase column (C18), acetonitrile/water with formic acid, EEC Directive 79/831 Annex V.A8

SMILES	efficacy (kill in %) [1] [%]	logP [2, 8]	efficacy (dead or moribund ticks) ([3]; application rate 1 μg/cm^2) [%]	efficacy (dead or moribund ticks) ([3]; application rate 5 μg/cm^2) [%]	efficacy (dead or moribund fleas) ([4]; application rate 1 μg/cm^2) [%]	efficacy (dead or moribund fleas) ([4]; application rate 5 μg/cm^2) [%]	efficacy in % ([5]; application rate 500 g/ha) [%]	chromatographic logP [2]	efficacy (kill in %) [6] [%]	nematicidal efficacy in % (formation of galls) [7] [%]	efficacy in % ([5]; application rate 100 g/ha) [%]	logP [2, 9]
Cn1nc(C(F)(F)C(F)(F)F)c(C(F)(F)F)c1-n1ccc(-c2ccc(Cl)c(C(=O)NC3(C#N)CC3)c2)c1 [Ia-1]	100	3.99	100	100	100	100						
Cn1nc(C(F)(F)C(F)(F)F)c(C(F)(F)F)c1-n1ccc(-c2ccc(Cl)c(C(=O)NC3CC3)c2)c1 [Ia-2]	100	4.08	100	100	100	100						
Cn1nc(C(F)(F)C(F)(F)F)c(C(F)(F)F)c1-n1cnc(-c2ccc(Cl)c(C(=O)NC3CC3)c2)c1 [Ib-3]	100	3.43	100	80	100	100						
Cn1nc(C(F)(F)C(F)(F)F)c(C(F)(F)F)c1-n1cc(-c2ccc(Cl)c(C(=O)NC3CC3)c2)cn1 [Ic-1, 2-Chloro-N-cyclopropyl-5-[2′-methyl-5′-(pentafluoroethyl)-4′-(trifluoromethyl)-2′H-1,3′-bipyrazol-4-yl]benzamide]	100		100	100	100	100	90	3.79	80	90		
Cn1nc(C(F)(F)C(F)(F)F)c(C(F)(F)F)c1-n1cc(-c2ccc(Cl)c(C(=O)NC3(C#N)CC3)c2)cn1 [Ic-2]	100		100	100	100	100					100	3.72
Cn1nc(C(F)(F)C(F)(F)F)c(C(F)(F)F)c1-n1cc(-c2ccc(Cl)c(C(=O)NC3(C(N)=S)CC3)c2)cn1 [Ic-11]	100		100	100	100	100					100	3.59
CCn1nc(C(F)(F)C(F)(F)F)c(C(F)(F)F)c1-n1cc(-c2ccc(Cl)c(C(=O)NC3CC3)c2)cn1 [Ic-16]	100		100	100	100	100			80			4.14
Cn1nc(C(F)(F)C(F)(F)F)c(C(F)(F)F)c1-n1cc(-c2ccc(Cl)c(C(=O)NCC(F)(F)F)c2)cn1 [Ic-23]	100		100	100	100	100						4.17
Cn1nc(C(F)(F)C(F)(F)F)c(C(F)(F)F)c1-n1cc(-c2cc(F)c(Cl)c(C(=O)NC3CC3)c2)cn1 [Ic-24]	100		100	100	100	100	90					3.90
Cn1nc(C(F)(F)C(F)(F)F)c(C(F)(F)F)c1-n1cc(-c2cc(F)c(Cl)c(C(=O)NC3(C#N)CC3)c2)cn1 [Ic-27]	100		100	100	100	100	90					3.87
Cn1nc(C(F)(F)C(F)(F)F)c(C(F)(F)F)c1-n1cc(-c2ccc(Br)c(C(=O)NC3(C#N)CC3)c2)cn1 [Ic-34]	100		80	100	100	100					90	3.74
Cn1nc(C(F)(F)C(F)(F)F)c(C(F)(F)F)c1-n1cc(-c2ccc(F)c(C(=O)NC3(C#N)CC3)c2)cn1 [Ic-36]	100		100	100	100	100					90	3.69
Cn1nc(C(F)(F)C(F)(F)F)c(C(F)(F)F)c1-n1cc(-c2ccc(F)c(C(=O)NC3CC3)c2)cn1 [Ic-37]	100		100	100	100	100						3.79
Cn1nc(C(F)(F)C(F)(F)F)c(C(F)(F)F)c1-n1cc(-c2ccc([N+](=O)[O-])c(C(=O)NC3CC3)c2)cn1 [Ic-66]	100		100	100	100	100					90	3.53
Cn1nc(C(F)(F)C(F)(F)F)c(C(F)(F)F)c1-n1cc(-c2ccc(Cl)c(C(=O)NCC(F)F)c2)cn1 [Ic-78]	100		100	100	100	100					90	3.86
Cn1nc(C(F)(F)C(F)(F)F)c(C(F)(F)F)c1-n1cc(-c2ccc(Cl)c(C(=O)NC3CC3F)c2)cn1 (centres unmarked) [Ic-81]	100		100	100	100	100					90	3.8
Cc1ncc(-c2cnn(-c3c(C(F)(F)F)c(C(F)(F)C(F)(F)F)nn3C)c2)cc1C(=O)NC1CC1 [Ic-84]	100		100	100	100	100	100					
Cn1nc(C(F)(F)C(F)(F)F)c(C(F)(F)F)c1-n1cc(-c2cc(Cl)c(Cl)c(C(=O)NC3CC3)c2)cn1 [Ic-94]	100		100	100	100	100	100					
CN(C(=O)c1cc(-c2cnn(-c3c(C(F)(F)F)c(C(F)(F)C(F)(F)F)nn3C)c2)ccc1Cl)C1(C#N)CC1 [Ic-96]	100		100	100	100	100					100	4.1

Reference: patent US9487489B2, “Halogen-substituted pyrazole derivatives as pest-control agents” (BAYER CROPSCIENCE AKTIENGESELLSCHAFT, priority 2013, dated 2016)
